Data published in patent publication US20110251379A1, “COMPOUNDS USEFUL FOR TREATING NEURODEGENERATIVE DISORDERS” (Satori Pharmaceuticals, Inc., priority 2010, published 2011).
pIC50: −log10 of the molar value. Where two headings read alike, the source gives them in different places.

Key:
Assay type in all cases: cell-based
[1] = tested on: Aβ-38; assay: MSD Human (6E10) Ab 3-PLEX elisa, conditioned media of 2B7 cells: Aβ-38; conditions: Homo sapiens; for pIC50: Aβ-38 (superscript a)
Description: (§1) Assays were conducted to determine the ability of a Compound of Formula I to modulate […], and Aβ-38.
(§2) Plates with capture antibodies were blocked for 1-2 hours at room temperature with 150 μL of the manufactures blocking reagent.
(§3) Conditioned Media: • Cultured 2B7 cells in 96 well plate with 250 uL of media per well until confluent; • Prepared serial dilutions of compounds in DMSO at 100× the final desired concentration; • Washed wells with 2B7 cells 1× with 250 uL of media; • Diluted DMSO stocks 1:100 into media: • Added 250 μL of media containing compounds (1% DMSO) to wells with 2B7 cells for 5 hours at 37° C.
(§4) Elisa Sample Prep: • Diluted conditioned media: 1 part media with 1% DMSO and 1 part blocking buffer; • 150 μL of the 250 μL of conditioned media were used.
(§5) […] CURVE SAMPLE PREP: Prepared per manufacturer's protocol (see above) • Seven point standard curve samples were prepared that contained Aβ-42, Aβ-40, and Aβ-38. The highest concentration of Aβ-42 and Aβ-3-38 was 3,000 pg/mL and the highest concentration of Aβ-40 was 10,000 pg/mL. Subsequent serial dilutions were 1:3 and the final composition of each sample was 1 part blocking buffer and 1 part cell medium containing 1% DMSO.
(§6) Overnight Sample Incubation: • Blocked plates are washed 5× with MSD wash buffer with a plate washer • 25 uL of detection antibody and blocker G reagent in MSD blocking solution is added • 25 uL of samples (1 part conditioned media containing 1% DMSO and 1 part MSD blocking buffer) are then added. • plates are incubated overnight at 4 degrees C. or 2 hours at room temp
(§7) Final Wash and Readout: • Wash wells 5× with MSD wash buffer • Added 150 μL 2×MSD read buffer • Read with MSD imager.
(§8) A-Beta peptide levels for each peptide are calculated from the standard curve using the MSD software provided with the MSD 2400 Imager. Percent vehicle values for each compound dosage were then calculated and fit to a 4 parameter curve generating IC50 values.

[2] = tested on: Aβ-40; assay: MSD Human (6E10) Ab 3-PLEX elisa, conditioned media of 2B7 cells: Aβ-40; conditions: for pIC50 / inhibition at 20 µM: Homo sapiens; for inhibition at 20 µM: Aβ-40, 20 μM
Description: as §1, §2, §3, §4, §5, §6, §7, §8

[3] = tested on: Aβ-42; assay: MSD Human (6E10) Ab 3-PLEX elisa, conditioned media of 2B7 cells: Aβ-42; conditions: for inhibition at 20 µM / pIC50: Homo sapiens; for inhibition at 20 µM: Aβ-42, 20 μM
Description: as §1, §2, §3, §4, §5, §6, §7, §8

[4] = Aβ-40 (superscript b), read-out: 50% reduction value
[5] = Aβ-42 (superscript c), read-out: 50% reduction value
[6] = Aβ-40 (superscript b), read-out: IC50 range
[7] = Aβ-42 (superscript c), read-out: IC50 range

Row | SMILES | pIC50 ([1]; read-out: 50% reduction value) | pIC50 [2, 4] | inhibition at 20 µM [3] | inhibition at 20 µM [2] | pIC50 [3, 5] | pIC50 ([1]; read-out: IC50 range) | 50% reduction value ([2]; Aβ-40 (superscript b)) | 50% reduction value ([3]; Aβ-42 (superscript c)) | pIC50 [2, 6] | pIC50 [3, 7] | inhibition at 20 µM ([1]; Aβ-38, 20 μM)
1 | COC(=O)N(C)CC1C[C@@H](C)[C@H]2C(O1)[C@H](O)[C@@]1(C)C3CC[C@H]4C(C)(C)[C@@H](O)CC[C@@]45C[C@@]35CC[C@]21C (stereo partly drawn) | 5.00 to 6.00 | < 5.00 | 25 to 75% |  |  |  |  |  |  |  | 
2 | C[C@@H]1CC(CNC(=O)N(C)C)OC2[C@H]1[C@@]1(C)CC[C@@]34C[C@@]35CC[C@H](O)C(C)(C)[C@@H]5CCC4[C@]1(C)[C@H]2O (stereo partly drawn) | < 5.00 |  | < 25% | 25 to 75% |  |  |  |  |  |  | 
3 | C[C@@H]1CC(CN(C)C(=O)N(C)C)OC2[C@H]1[C@@]1(C)CC[C@@]34C[C@@]35CC[C@H](O)C(C)(C)[C@@H]5CCC4[C@]1(C)[C@H]2O (stereo partly drawn) | 5.00 to 6.00 |  | 25 to 75% | 25 to 75% |  |  |  |  |  |  | 
4 | CO[C@@H](C1C[C@@H](C)[C@H]2C(O1)[C@H](O)[C@@]1(C)C3CC[C@H]4C(C)(C)[C@@H](O)CC[C@@]45C[C@@]35CC[C@]21C)C(C)(C)O (stereo partly drawn) | > 6.00 |  |  | 25 to 75% | > 6.00 |  |  |  |  |  | 
5 | CNC(=O)O[C@H](C(C)C)C1C[C@@H](C)[C@H]2C(O1)[C@H](O)[C@@]1(C)C3CC[C@H]4C(C)(C)[C@@H](O)CC[C@@]45C[C@@]35CC[C@]21C (stereo partly drawn) | 5.00 to 6.00 |  |  |  |  | > 6.00 | H/I | G/H |  |  | 
6 | CC(C)[C@@H](OC(=O)N(C)C)C1C[C@@H](C)[C@H]2C(O1)[C@H](O)[C@@]1(C)C3CC[C@H]4C(C)(C)[C@@H](O)CC[C@@]45C[C@@]35CC[C@]21C (stereo partly drawn) | > 6.00 | 5.00 to 6.00 |  |  | > 5.00 | 5.00 to 6.00 |  |  | < 5.00 | 5.00 to 6.00 | 
7 | CC(C)C(=O)N1CCO[C@@H](O[C@H]2CC[C@]34C[C@]35CC[C@]3(C)[C@@H]6C(OC([C@H](O)C(C)C)C[C@H]6C)[C@H](O)[C@@]3(C)C5CC[C@H]4C2(C)C)C1 (stereo partly drawn) | 5.00 to 6.00 | < 5.00 |  |  | 5.00 to 6.00 | 5.00 to 6.00 |  |  |  |  | 
8 | CC(C)C(=O)N1CCO[C@@H](O[C@H]2CC[C@]34C[C@]35CC[C@]3(C)C6C(OC(CN(C)C(=O)N(C)C)C[C@H]6C)[C@H](O)[C@@]3(C)C5CC[C@H]4C2(C)C)C1 (stereo partly drawn) | > 5.00 |  | 25 to 75% | 25 to 75% | < 5.00 | 5.00 to 6.00 |  |  |  |  | 
9 | CCO[C@@H](C1C[C@@H](C)[C@H]2C(O1)[C@H](O)[C@@]1(C)C3CC[C@H]4C(C)(C)[C@@H](O)CC[C@@]45C[C@@]35CC[C@]21C)C(C)(C)O (stereo partly drawn) | > 6.00 |  |  | 25 to 75% | > 6.00 |  |  |  | > 6.00 | > 6.00 | 25 to 75%
10 | CC(C)C(=O)N1CCO[C@@H](O[C@H]2CC[C@]34C[C@]35CC[C@]3(C)C6C(OC(CN(C)C(N)=O)C[C@H]6C)[C@H](O)[C@@]3(C)C5CC[C@H]4C2(C)C)C1 (stereo partly drawn) | 5.00 to 6.00 | < 5.00 |  |  | 5.00 to 6.00 |  |  |  |  |  | 
11 | CO[C@@H]([C@H]1C[C@@H](C)[C@H]2[C@H](O1)[C@H](O)[C@@]1(C)C3CC[C@H]4C(C)(C)[C@@H](O[C@H]5CN(C6COC6)CCO5)CC[C@@]45C[C@@]35CC[C@]21C)C(C)(C)O (stereo partly drawn) | > 6.00 | 5.00 to 6.00 |  |  | > 6.00 |  |  |  |  |  | 
12 | CO[C@@H]([C@H]1C[C@@H](C)[C@H]2[C@H](O1)[C@H](OC)[C@@]1(C)C3CC[C@H]4C(C)(C)[C@@H](O[C@H]5CN(C6COC6)CCO5)CC[C@@]45C[C@@]35CC[C@]21C)C(C)(C)O (stereo partly drawn) | > 6.00 |  | 25 to 75% | 25 to 75% |  |  |  |  |  |  | 
13 | CCO[C@@H]([C@H]1C[C@@H](C)[C@H]2[C@H](O1)[C@H](O)[C@@]1(C)C3CC[C@H]4C(C)(C)[C@@H](O[C@H]5CN(C6COC6)CCO5)CC[C@@]45C[C@@]35CC[C@]21C)C(C)(C)O (stereo partly drawn) | > 6.00 | 5.00 to 6.00 |  |  | > 6.00 |  |  |  |  | > 6.00 | 
14 | CC(=O)OC(C)(C)C1C[C@@H](C)[C@H]2C(O1)[C@H](O)[C@@]1(C)C3CC[C@H]4C(C)(C)[C@@H](O)CC[C@@]45C[C@@]35CC[C@]21C (stereo partly drawn) | 5.00 to 6.00 | < 5.00 |  |  | < 5.00 |  |  |  |  |  | 
15 | C[C@@H]1CC(COc2ncccn2)OC2C1[C@@]1(C)CC[C@@]34C[C@@]35CC[C@H](O[C@H]3CN(C6COC6)CCO3)C(C)(C)[C@@H]5CCC4[C@]1(C)[C@H]2O (stereo partly drawn) | 5.00 to 6.00 | 5.00 to 6.00 |  |  | 5.00 to 6.00 | 5.00 to 6.00 |  |  | 5.00 to 6.00 | 5.00 to 6.00 | 
16 | C[C@@H]1CC(C(O)C(C)(C)C)OC2[C@H]1[C@@]1(C)CC[C@@]34C[C@@]35CC[C@H](O[C@H]3CN(C6COC6)CCO3)C(C)(C)[C@@H]5CCC4[C@]1(C)[C@H]2O (stereo partly drawn) | > 6.00 | > 6.00 |  |  | 5.00 to 6.00 | > 6.00 |  |  | > 6.00 | > 6.00 | 
17 | C[C@@H]1CC(C(O)C(C)(C)C)OC2[C@H]1[C@@]1(C)CC[C@@]34C[C@@]35CC[C@H](O)C(C)(C)[C@@H]5CCC4[C@]1(C)[C@H]2O (stereo partly drawn) | 5.00 to 6.00 | < 5.00 | 25 to 75% |  |  |  |  |  |  |  | 
18 | CC(=O)OC(C(C)C)C1C[C@@H](C)[C@H]2C(O1)[C@H](O)[C@@]1(C)C3CC[C@H]4C(C)(C)[C@@H](O[C@H]5CNCCO5)CC[C@@]45C[C@@]35CC[C@]21C (stereo partly drawn) | > 6.00 | 5.00 to 6.00 |  |  | > 6.00 | > 6.00 |  |  | 5.00 to 6.00 | > 6.00 | 
19 | CO[C@H](C(C)C)C1C[C@@H](C)[C@H]2C(O1)[C@H](O)[C@@]1(C)C3CC[C@H]4C(C)(C)[C@@H](O[C@H]5CNCCO5)CC[C@@]45C[C@@]35CC[C@]21C (stereo partly drawn) | 5.00 to 6.00 | 5.00 to 6.00 |  |  | 5.00 to 6.00 | 5.00 to 6.00 |  |  | 5.00 to 6.00 | 5.00 to 6.00 | 
20 | CO[C@H](C(C)C)C1C[C@@H](C)[C@H]2C(O1)[C@H](O)[C@@]1(C)C3CC[C@H]4C(C)(C)[C@@H](O)CC[C@@]45C[C@@]35CC[C@]21C (stereo partly drawn) | 5.00 to 6.00 | < 5.00 | 25 to 75% |  |  |  |  |  |  |  | 
21 | CNC(=O)O[C@H](C(C)C)C1C[C@@H](C)[C@H]2C(O1)[C@H](O)[C@@]1(C)C3CC[C@H]4C(C)(C)[C@@H](O[C@H]5CNCCO5)CC[C@@]45C[C@@]35CC[C@]21C (stereo partly drawn) | > 6.00 | 5.00 to 6.00 | 25 to 75% | 25 to 75% | > 6.00 |  |  |  | < 5.00 | > 6.00 | 
22 | C[C@@H]1CC([C@H](OC(=O)C2CCOCC2)C(C)(C)O)OC2[C@H]1[C@@]1(C)CC[C@@]34C[C@@]35CC[C@H](O)C(C)(C)[C@@H]5CCC4[C@]1(C)[C@H]2O (stereo partly drawn) | 5.00 to 6.00 |  | 25 to 75% | 25 to 75% |  |  |  |  |  |  | 
23 | C[C@@H]1C[C@H]([C@H](OC(N)=O)C(C)(C)O)O[C@H]2[C@H]1[C@@]1(C)CC[C@@]34C[C@@]35CC[C@H](O[C@H]3CN(C6COC6)CCO3)C(C)(C)[C@@H]5CCC4[C@]1(C)[C@H]2O (stereo partly drawn) | 5.00 to 6.00 | < 5.00 | 25 to 75% |  |  |  |  |  |  |  | 
24 | CNC(=O)OC(C)(C)[C@@H](O)[C@H]1C[C@@H](C)[C@H]2[C@H](O1)[C@H](O)[C@@]1(C)C3CC[C@H]4C(C)(C)[C@@H](O)CC[C@@]45C[C@@]35CC[C@]21C (stereo partly drawn) | 5.00 to 6.00 | < 5.00 | 25 to 75% |  |  |  |  |  |  |  | 
